Measured values from ChEMBL document CHEMBL5325473, “Conformational study into N-alkyl-N'-aryl ureas to inform drug discovery” (Bioorg Med Chem, 2023).
In brackets after ≈: the same amount, converted by molar mass.

Legend:
[1] = target: Cyclin-dependent kinase 2 (Homo sapiens, UniProt P24941); test: Binding affinity to human Avi-tagged CDK2 expressed in Escherichia coli BL21 DE3 assessed as dissociation constant by Surface plasmon resonance analysis
[2] = target: Epidermal growth factor receptor (Mus musculus, UniProt Q01279); test: Displacement of probe N-(4-(4-(3-((4-((3-chloro-4-fluorophenyl)amino)-7-methoxyquinazolin-6-yl)oxy)propyl)piperazin-1-yl)-4-oxobutyl)-3-(5,5-difluoro-7,9-dimethyl-5H-5l4,6l4-dipyrrolo[1,2-c:2',1'-f][1,3,2]diazaborinin-3-yl)propenamide from C-terminal His-tagged wild type mouse EGFR incubated for 30 mins by probe displacement based TR-FRET assay
[3] = Chromatographic hydrophobicity index, log D of the compound by HPLC analysis; format: physicochemical
[4] = Aqueous solubility of compound at pH 7.4; format: physicochemical

Chain of Epidermal growth factor receptor (Q01279 whole entry): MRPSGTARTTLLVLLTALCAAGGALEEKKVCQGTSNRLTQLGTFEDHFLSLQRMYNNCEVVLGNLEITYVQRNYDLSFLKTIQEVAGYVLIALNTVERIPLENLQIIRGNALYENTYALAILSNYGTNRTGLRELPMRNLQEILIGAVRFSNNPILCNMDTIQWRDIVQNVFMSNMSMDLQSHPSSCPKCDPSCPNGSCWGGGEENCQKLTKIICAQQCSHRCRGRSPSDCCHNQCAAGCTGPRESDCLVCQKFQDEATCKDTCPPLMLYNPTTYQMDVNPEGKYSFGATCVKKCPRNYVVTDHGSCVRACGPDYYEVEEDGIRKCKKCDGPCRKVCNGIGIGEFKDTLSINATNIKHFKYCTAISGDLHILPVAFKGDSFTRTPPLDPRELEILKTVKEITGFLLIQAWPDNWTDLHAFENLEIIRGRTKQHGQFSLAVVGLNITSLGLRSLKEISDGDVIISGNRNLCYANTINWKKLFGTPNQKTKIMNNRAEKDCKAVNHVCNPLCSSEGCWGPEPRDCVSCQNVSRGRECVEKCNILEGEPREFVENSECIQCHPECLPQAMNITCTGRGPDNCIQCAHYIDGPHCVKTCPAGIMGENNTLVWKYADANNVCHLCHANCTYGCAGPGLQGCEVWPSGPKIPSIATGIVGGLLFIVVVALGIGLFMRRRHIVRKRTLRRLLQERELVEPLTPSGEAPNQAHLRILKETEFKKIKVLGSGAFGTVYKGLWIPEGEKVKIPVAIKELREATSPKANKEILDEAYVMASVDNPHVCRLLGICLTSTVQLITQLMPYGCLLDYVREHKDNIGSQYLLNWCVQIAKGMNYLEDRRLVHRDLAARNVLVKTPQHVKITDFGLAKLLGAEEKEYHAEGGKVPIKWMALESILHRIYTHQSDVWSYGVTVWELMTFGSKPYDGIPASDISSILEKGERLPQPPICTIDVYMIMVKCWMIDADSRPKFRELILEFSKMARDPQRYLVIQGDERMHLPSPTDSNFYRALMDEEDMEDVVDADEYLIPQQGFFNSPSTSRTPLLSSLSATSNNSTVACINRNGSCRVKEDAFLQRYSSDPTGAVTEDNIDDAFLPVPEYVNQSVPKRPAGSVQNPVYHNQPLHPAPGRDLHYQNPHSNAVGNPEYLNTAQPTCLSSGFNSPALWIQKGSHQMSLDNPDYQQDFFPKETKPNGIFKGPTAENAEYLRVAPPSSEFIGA

Compound | Kd [1] [µM] | IC50 [2] [µM] | chromatographic logD [3] | solubility [4] [µM]
CN(C(=O)Nc1ccccc1)C1CCCC1 | 2000 | > 1000 | 2.8 | 98 (≈ 21.4 µg/mL)
CN(C(=O)N(C)C1CCCC1)c1ccccc1 | 3160 | 126 | 3.6 | 77 (≈ 17.9 µg/mL)
CN(C(=O)N(C)C1CCCC1)c1ccccn1 | 15800 | > 1000 | 2.2 | 114 (≈ 26.6 µg/mL)
CN(C(=O)NC1CCCC1)c1ccccn1 | 1580 | > 1000 | 3 | 87 (≈ 19.1 µg/mL)
CN(C(=O)NC1CCCC1)c1ccccc1 | 7940 | 100 | 2.7 | 104 (≈ 22.7 µg/mL)

Other lines, results leading:

Kd [1] [µM] | IC50 [2] [µM] | chromatographic logD [3] | solubility [4] [µM] | Compound
1000 | 200 | 2.4 | 85 (≈ 17.4 µg/mL) | O=C(Nc1ccccc1)NC1CCCC1
398 | 398 | 2.4 | 93 (≈ 19.1 µg/mL) | O=C(Nc1ccccn1)NC1CCCC1
2510 | 794 | 2.1 | 102 (≈ 22.4 µg/mL) | CN(C(=O)Nc1ccccn1)C1CCCC1
